# The supplement of paper PMC10307832
# Legend:
# Assay in all cases: relative viability (nuclei count vs DMSO), 5 days (fraction); higher = more cells survive
# [1] = tested on: NCI-H838
# Procedure, shortened: (§1)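 After 5 days of treatment, lung cancer cells in 1536-well plates were fixed and stained in a single step (final 0.05% Triton X-100, 1% formaldehyde, 1 ug/ml Hoechst) and their nuclei counted on 4× images. Treatment had been applied by pin tool the day after seeding as one drug alone or as a fixed anchor-drug dose with five library-drug doses (not always all listed) in √10 steps. Relative viability is the nuclei count of treated wells divided by that of vehicle wells, and values are medians of duplicate plates.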
# [2] = tested on: NCI-H1650
# Procedure, shortened: as §1
# [3] = tested on: COR-L23
# Procedure, shortened: as §1
# [4] = tested on: NCI-H1734
# Procedure, shortened: as §1
# [5] = tested on: ChaGo-K-1
# Procedure, shortened: as §1
# [6] = tested on: NCI-H358
# Procedure, shortened: as §1
# [7] = tested on: HCC-366
# Procedure, shortened: as §1
# [8] = tested on: NCI-H3122
# Procedure, shortened: as §1
# [9] = tested on: SK-MES-1
# Procedure, shortened: as §1
# [10] = tested on: EKVX
# Procedure, shortened: as §1
# [11] = tested on: HOP-62
# Procedure, shortened: as §1
structure (smiles),measurement,setting,value
O=c1[nH]c2ccccc2n1C1CCN(CCCC(c2ccc(F)cc2)c2ccc(F)cc2)CC1 [Pimozide] + CC(=O)c1c(C)c2cnc(Nc3ccc(N4CCNCC4)cn3)nc2n(C2CCCC2)c1=O [Palbociclib] (partner 0.5 µM),relative viability,[1]; first compound 0.08 µM,0.252
same,relative viability,[1]; first compound 0.253 µM,0.251
same,relative viability,[1]; first compound 0.8 µM,0.203
same,relative viability,[1]; first compound 2.53 µM,0.244
same,relative viability,[1]; first compound 8 µM,0.215
same,relative viability,[2]; first compound 0.08 µM,0.287
same,relative viability,[2]; first compound 0.253 µM,0.378
same,relative viability,[2]; first compound 0.8 µM,0.265
same,relative viability,[2]; first compound 2.53 µM,0.352
same,relative viability,[2]; first compound 8 µM,0.271
same,relative viability,[3]; first compound 0.08 µM,0.291
same,relative viability,[3]; first compound 0.253 µM,0.346
same,relative viability,[3]; first compound 0.8 µM,0.293
same,relative viability,[3]; first compound 2.53 µM,0.267
same,relative viability,[3]; first compound 8 µM,0.307
same,relative viability,[4]; first compound 0.08 µM,0.316
same,relative viability,[4]; first compound 0.253 µM,0.262
same,relative viability,[4]; first compound 0.8 µM,0.372
same,relative viability,[4]; first compound 2.53 µM,0.347
same,relative viability,[4]; first compound 8 µM,0.328
same,relative viability,[5]; first compound 0.08 µM,0.918
same,relative viability,[5]; first compound 0.253 µM,0.955
same,relative viability,[5]; first compound 0.8 µM,0.9
same,relative viability,[5]; first compound 2.53 µM,0.903
same,relative viability,[5]; first compound 8 µM,0.9
same,relative viability,[6]; first compound 0.08 µM,0.141
same,relative viability,[6]; first compound 0.253 µM,0.132
same,relative viability,[6]; first compound 0.8 µM,0.127
same,relative viability,[6]; first compound 2.53 µM,0.147
same,relative viability,[6]; first compound 8 µM,0.143
same,relative viability,[7]; first compound 0.08 µM,0.38
same,relative viability,[7]; first compound 0.253 µM,0.404
same,relative viability,[7]; first compound 0.8 µM,0.345
same,relative viability,[7]; first compound 2.53 µM,0.379
same,relative viability,[7]; first compound 8 µM,0.357
same,relative viability,[8]; first compound 0.08 µM,0.175
same,relative viability,[8]; first compound 0.253 µM,0.176
same,relative viability,[8]; first compound 0.8 µM,0.174
same,relative viability,[8]; first compound 2.53 µM,0.163
same,relative viability,[8]; first compound 8 µM,0.185
same,relative viability,[9]; first compound 0.08 µM,0.307
same,relative viability,[9]; first compound 0.253 µM,0.298
same,relative viability,[9]; first compound 0.8 µM,0.303
same,relative viability,[9]; first compound 2.53 µM,0.316
same,relative viability,[9]; first compound 8 µM,0.314
same,relative viability,[10]; first compound 0.253 µM,0.4
same,relative viability,[10]; first compound 0.8 µM,0.343
same,relative viability,[10]; first compound 2.53 µM,0.387
same,relative viability,[10]; first compound 8 µM,0.37
same,relative viability,[11]; first compound 0.08 µM,0.412
same,relative viability,[11]; first compound 0.253 µM,0.391
same,relative viability,[11]; first compound 2.53 µM,0.361
same,relative viability,[11]; first compound 8 µM,0.442
